Results as given in the supplement of paper PMC10307832.

What was measured:
Experiment in all cases: relative viability (nuclei count vs DMSO), 5 days (fraction); higher = more cells survive
[1] = compound: C1COCCN1C2=NC(=NC3=C2OC4=C3C=CC=N4)C5=CC(=CC=C5)NC(=O)C6=CN=C(C=C6)N + CC(=O)Nc1cccc(-n2c(=O)n(C3CC3)c(=O)c3c(Nc4ccc(I)cc4F)n(C)c(=O)c(C)c32)c1 [Trametinib] (partner 0.02 µM)
In short: (§1)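 Relative viability divides the nuclei count in treated wells by that in vehicle wells. Lung cancer cell lines were seeded in 1536-well plates, dosed by pin tool the next day, and fixed and stained after 5 days in one step with final 0.05% Triton X-100, 1% formaldehyde and 1 ug/ml Hoechst. Dosing was a single drug or a fixed anchor-drug dose plus five library-drug doses (not always all listed) in √10 steps, and values are medians of duplicate plates imaged at 4×.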

Entinostat + Navitoclax = compound: Nc1ccccc1NC(=O)c1ccc(CNC(=O)OCc2cccnc2)cc1 [Entinostat] + CC1(C)CCC(c2ccc(Cl)cc2)=C(CN2CCN(c3ccc(C(=O)NS(=O)(=O)c4ccc(N[C@H](CCN5CCOCC5)CSc5ccccc5)c(S(=O)(=O)C(F)(F)F)c4)cc3)CC2)C1 [Navitoclax] (partner 0.5 µM)
In short: as §1

Entinostat + Phenformin = compound: Nc1ccccc1NC(=O)c1ccc(CNC(=O)OCc2cccnc2)cc1 [Entinostat] + N=C(N)NC(=N)NCCc1ccccc1 [Phenformin] (partner 250 µM)
In short: as §1

Entinostat + Olaparib = compound: Nc1ccccc1NC(=O)c1ccc(CNC(=O)OCc2cccnc2)cc1 [Entinostat] + O=C(c1cc(Cc2n[nH]c(=O)c3ccccc23)ccc1F)N1CCN(C(=O)C2CC2)CC1 [Olaparib] (partner 8 µM)
In short: as §1

Cell Line | relative viability ([1]; first compound 0.02 µM) | relative viability ([1]; first compound 0.06325 µM) | relative viability ([1]; first compound 0.2 µM) | relative viability ([1]; first compound 0.6325 µM) | relative viability ([1]; first compound 2 µM) | relative viability (Entinostat + Navitoclax; first compound 0.02 µM) | relative viability (Entinostat + Navitoclax; first compound 0.06325 µM) | relative viability (Entinostat + Navitoclax; first compound 0.2 µM) | relative viability (Entinostat + Navitoclax; first compound 0.6325 µM) | relative viability (Entinostat + Navitoclax; first compound 2 µM) | relative viability (Entinostat + Phenformin; first compound 0.02 µM) | relative viability (Entinostat + Phenformin; first compound 0.06325 µM) | relative viability (Entinostat + Phenformin; first compound 0.2 µM) | relative viability (Entinostat + Phenformin; first compound 0.6325 µM) | relative viability (Entinostat + Phenformin; first compound 2 µM) | relative viability (Entinostat + Olaparib; first compound 0.02 µM) | relative viability (Entinostat + Olaparib; first compound 0.06325 µM) | relative viability (Entinostat + Olaparib; first compound 0.2 µM) | relative viability (Entinostat + Olaparib; first compound 0.6325 µM) | relative viability (Entinostat + Olaparib; first compound 2 µM)
HCC-78 | 0.926 | 0.836 | 0.899 | 0.756 | 0.566 | 0.739 | 0.652 | 0.498 | 0.218 | 0.181 | 0.819 | 0.751 | 0.55 | 0.329 | 0.27 | 0.771 | 0.722 | 0.577 | 0.386 | 0.355
HCC-366 | 0.4 | 0.341 | 0.394 | 0.231 | 0.138 | 1.06 | 0.946 | 0.905 | 0.529 | 0.138 | 0.578 | 0.61 | 0.582 | 0.451 | 0.186 | 0.343 | 0.311 | 0.212 | 0.132 | 0.0516
HCC-827 | 0.488 | 0.573 | 0.459 | 0.483 | 0.408 | 1.03 | 0.93 | 0.812 | 0.595 | 0.386 | 0.397 | 0.381 | 0.395 | 0.357 | 0.275 | 0.587 | 0.623 | 0.488 | 0.322 | 0.237
HOP-62 | 0.403 | 0.415 | 0.323 | 0.359 | 0.227 | 1.08 | 0.923 | 0.832 | 0.607 | 0.217 | 0.614 | 0.6 | 0.773 | 0.412 | 0.266 | 0.36 | 0.391 | 0.373 | 0.147 | 0.128
IA-LM | – | – | – | – | – | 0.802 | 0.861 | 0.898 | 0.685 | 0.378 | – | – | – | – | – | 0.807 | 0.845 | 0.871 | 0.693 | 0.536
LC-2-ad | 0.959 | 0.983 | 0.962 | 0.899 | 0.654 | 0.387 | 0.289 | 0.264 | 0.17 | 0.134 | 0.568 | 0.566 | 0.579 | 0.365 | 0.208 | 0.785 | 0.635 | 0.633 | 0.527 | 0.3
LCLC-97TM1 | 0.187 | 0.205 | 0.204 | 0.169 | 0.134 | 0.341 | 0.358 | 0.473 | 0.308 | 0.272 | 0.423 | 0.376 | 0.392 | 0.465 | 0.395 | 0.476 | 0.402 | 0.41 | 0.32 | 0.364
LCLC-103H | 0.66 | 0.693 | 0.693 | 0.62 | 0.479 | – | – | – | – | – | 0.36 | 0.379 | 0.331 | 0.265 | 0.229 | 0.748 | 0.738 | 0.684 | 0.528 | 0.447
LK-2 | 0.787 | 0.798 | 0.637 | 0.583 | 0.426 | 0.719 | 0.752 | 0.659 | 0.443 | 0.21 | 0.497 | 0.761 | 0.576 | 0.383 | 0.32 | 0.857 | 0.904 | 0.584 | 0.475 | 0.239
LOU-NH91 | 0.78 | 0.816 | 0.828 | 0.782 | 0.716 | 0.72 | 0.721 | 0.625 | 0.428 | 0.315 | 0.746 | 0.773 | 0.75 | 0.706 | 0.55 | 0.863 | 0.904 | 0.919 | 0.806 | 0.676
NCI-H358 | 0.132 | 0.138 | 0.122 | 0.127 | 0.244 | – | – | – | – | – | 0.335 | 0.546 | 0.506 | 0.245 | 0.108 | 0.574 | 0.649 | 0.593 | 0.342 | 0.172
NCI-H522 | 0.797 | 0.901 | 0.681 | 0.758 | 0.592 | – | – | – | – | – | 0.69 | 0.572 | 0.695 | 0.801 | 0.577 | 0.58 | 0.713 | 0.582 | 0.686 | 0.494
NCI-H650 | 0.923 | 1.05 | 0.951 | 0.888 | 0.796 | – | – | – | – | – | 0.491 | 0.466 | 0.431 | 0.455 | 0.318 | 0.43 | 0.425 | 0.363 | 0.21 | 0.171
NCI-H661 | 0.607 | 0.631 | 0.534 | 0.599 | 0.436 | – | – | – | – | – | 0.281 | 0.266 | 0.303 | 0.269 | 0.192 | 0.696 | 0.721 | 0.641 | 0.567 | 0.339
NCI-H1299 | – | – | – | – | – | 1.05 | 1.01 | 1.05 | 0.936 | 0.763 | – | – | – | – | – | 1.03 | 0.923 | 0.965 | 0.702 | 0.585
NCI-H1563 | – | – | – | – | – | – | – | – | – | – | 0.76 | 0.646 | 0.714 | 0.669 | 0.607 | – | – | – | – | –
NCI-H1623 | – | – | – | – | – | – | – | – | – | – | 0.663 | 0.623 | 0.556 | 0.489 | 0.422 | – | – | – | – | –
NCI-H1648 | 0.54 | 0.534 | 0.456 | 0.405 | 0.482 | – | – | – | – | – | – | – | – | – | – | 0.769 | 0.624 | 0.673 | 0.615 | 0.512
NCI-H1703 | – | – | – | – | – | 1.22 | 1.21 | 1.37 | 1.05 | 0.575 | – | – | – | – | – | 0.388 | 0.435 | 0.545 | 0.7 | 0.454
NCI-H2342 | 0.743 | 0.963 | 0.807 | 0.805 | 0.79 | – | – | – | – | – | 0.6 | 0.639 | 0.518 | 0.584 | 0.468 | 0.401 | 0.477 | 0.447 | 0.356 | 0.308
SW 900 | 0.596 | 0.965 | 0.807 | 0.583 | 0.513 | – | – | – | – | – | 0.653 | 0.759 | 0.686 | 0.369 | 0.306 | 0.857 | 0.815 | 0.902 | 0.616 | 0.355
